# Laboratory results published in patent US20200247897A1, “THERAPEUTIC ANTIBODIES BASED ON MUTATED IGG HEXAMERS” (GENMAB B.V., priority 2017, published 2020).
# Test system: BxPC-3 pancreatic cancer cells
# Test: Caspase-Glo 3/7 assay, BxPC-3
# Format: cell-based, human
# Conditions: 26.6 nM; 1, 2, 4 to 6 hours
substance,measurement,value
"TRAIL: natural DR5 ligand, recombinant human TRAIL/APO-2L",caspase-3/7 activation,more rapid and more potent caspase-3/7 activation
